Measurements published in patent US9364482B2, “Substituted benzofuran compounds and methods of use thereof for the treatment of viral diseases” (priority 2013, dated 2016).
Read-outs that look alike come from different tables or passages of the source.

Legend:
HCV replicon genotype 1a = assay: microbe, parasite or virus in culture; type: cell-based, hepatitis C virus (HCV)
HCV replicon genotype 1b = assay: microbe, parasite or virus in culture; type: cell-based, hepatitis C virus (HCV)
[1] = Hepatitis C virus, 96 h, read-out: 1a IC50 (nM)
[2] = Hepatitis C virus, 96 h, read-out: 1b IC50 (nM)

Compound	IC50 (HCV replicon genotype 1a; [1]) [nM]	IC50 (HCV replicon genotype 1b; [2]) [nM]	IC50 (HCV replicon genotype 1a; read-out: 1a IC50) [nM]	IC50 (HCV replicon genotype 1b; read-out: 1b IC50) [nM]
CNC(=O)c1c(-c2ccc(F)cc2)oc2cc(N(C)S(C)(=O)=O)c(-c3ccc4c(n3)C(=O)N(Cc3ccccc3)CO4)cc12 [Compound 1, 5-(3-benzyl-4-oxo-3,4-dihydro-2H-pyrido[2,3-e][1,3]oxazin-6-yl)-2-(4-fluorophenyl)-N-methyl-6-(N-methylmethylsulfonamido)benzofuran-3-carboxamide]	3.22	2.44		
CNC(=O)c1c(-c2ccc(F)cc2)oc2cc(N(C)S(C)(=O)=O)c(-c3ccc4c(n3)C(=O)N(c3ccc(F)cc3)CO4)cc12 [Compound 2]	24.8	3.34		
CNC(=O)c1c(-c2ccc(F)cc2)oc2cc(N(C)S(C)(=O)=O)c(-c3ccc4c(n3)C(=O)N(c3cccc(F)c3)CO4)cc12 [Compound 3]	4.83	2.84		
CNC(=O)c1c(-c2ccc(F)cc2)oc2cc(N(C)S(C)(=O)=O)c(-c3ccc4c(n3)C(=O)N(CCc3ccccc3)CO4)cc12 [Compound 4]	39.9	15.2		
CNC(=O)c1c(-c2ccc(F)cc2)oc2cc(N(C)S(C)(=O)=O)c(-c3ccc4c(n3)C(=O)N(Cc3ccc(OC)cc3)CO4)cc12 [Compound 5]	3.06	1.59		
CNC(=O)c1c(-c2ccc(F)cc2)oc2cc(N(C)S(C)(=O)=O)c(-c3ccc4c(n3)C(=O)N(Cc3cccc(F)c3)CO4)cc12 [Compound 7]	1.48	1.06		
CNC(=O)c1c(-c2ccc(F)cc2)oc2cc(N(C)S(C)(=O)=O)c(-c3ccc4c(n3)C(=O)N(Cc3ccccc3F)CO4)cc12 [Compound 8]	5.87	2.62		
CNC(=O)c1c(-c2ccc(F)cc2)oc2cc(N(C)S(C)(=O)=O)c(-c3ccc4c(n3)C(=O)N(Cc3ccc(C#N)cc3)CO4)cc12 [Compound 9]	8.03	3.91		
CNC(=O)c1c(-c2ccc(F)cc2)oc2cc(N(C)S(C)(=O)=O)c(-c3ccc4c(n3)C(=O)N(Cc3ccc(F)cn3)CO4)cc12 [Compound 11, 2-(4-fluorophenyl)-5-(3-((5-fluoropyridin-2-yl)methyl)-4-oxo-3,4-dihydro-2H-pyrido[2,3-e][1,3]oxazin-6-yl)-N-methyl-6-(N-methylmethylsulfonamido)benzofuran-3-carboxamide]	15.3	7.68		
CNC(=O)c1c(-c2ccc(F)cc2)oc2cc(N(C)S(C)(=O)=O)c(-c3ccc4oc(=O)n(Cc5ccc(F)cc5)c(=O)c4n3)cc12 [Compound 14, 5-(3-(4-fluorobenzyl)-2,4-dioxo-3,4-dihydro-2H-pyrido[2,3-e][1,3]oxazin-6-yl)-2-(4-fluorophenyl)-N-methyl-6-(N-methylmethylsulfonamido)benzofuran-3-carboxamide]	435	35.9		
CNC(=O)c1c(-c2ccc(F)cc2)oc2cc(N(C)S(C)(=O)=O)c(-c3cnc4c(c3)C(=O)NC(C3CC3)N4)cc12 (stereo not shown) [Compound 16]	128	39.2		
CNC(=O)c1c(-c2ccc(F)cc2)oc2cc(N(C)S(C)(=O)=O)c(-c3cnc4ncn(-c5ccc(F)cc5)c(=O)c4c3)cc12 [Compound 22]	16.2	4.12		
CNC(=O)c1c(-c2ccc(F)cc2)oc2cc(N(C)S(C)(=O)=O)c(-c3cnc4ncn(-c5cccc(F)c5)c(=O)c4c3)cc12 [Compound 23]	3.98	3.24		
CNC(=O)c1c(-c2ccc(F)cc2)oc2cc(N(C)S(C)(=O)=O)c(-c3cnc4ncn(Cc5ccc(F)cc5)c(=O)c4c3)cc12 [Compound 24]	2.59	2.57		
CNC(=O)c1c(-c2ccc(F)cc2)oc2cc(N(C)S(C)(=O)=O)c(-c3cnc4ncn([C@H](C)c5ccc(F)cc5)c(=O)c4c3)cc12 [Compound 25]	16.3	11.9		
CNC(=O)c1c(-c2ccc(F)cc2)oc2cc(N(C)S(C)(=O)=O)c(-c3ccc4c(n3)C(=O)N([C@H](C)c3ccc(F)cc3)CO4)cc12 [Compound 30, (R)-2-(4-fluorophenyl)-5-(3-(1-(4-fluorophenyl)ethyl)-4-oxo-3,4-dihydro-2H-pyrido[2,3-e][1,3]oxazin-6-yl)-N-methyl-6-(N-methylmethylsulfonamido)benzofuran-3-carboxamide]			0.981	2.23
CNC(=O)c1c(-c2ccc(F)cc2)oc2cc(N(C)S(C)(=O)=O)c(-c3ccc4c(n3)C(=O)N([C@@H](C)c3ccc(F)cc3)CO4)cc12 [Compound 31, (S)-2-(4-fluorophenyl)-5-(3-(1-(4-fluorophenyl)ethyl)-4-oxo-3,4-dihydro-2H-pyrido[2,3-e][1,3]oxazin-6-yl)-N-methyl-6-(N-methylmethylsulfonamido)benzofuran-3-carboxamide]			41.8	12.5
CNC(=O)c1c(-c2ccc(F)cc2)oc2ccc(-c3ccc4c(n3)C(=O)N(C(C)(C)c3ccc(F)cc3)CO4)cc12 [Compound 33, 2-(4-fluorophenyl)-5-(3-(2-(4-fluorophenyl)propan-2-yl)-4-oxo-3,4-dihydro-2H-pyrido[2,3-e][1,3]oxazin-6-yl)-N-methylbenzofuran-3-carboxamide]	708	1690		
CNC(=O)c1c(-c2ccc(F)cc2)oc2ccc(-c3ccc4c(n3)C(=O)N(Cc3ccc(F)cc3)CO4)cc12 [Compound 34, 5-(3-(4-fluorobenzyl)-4-oxo-3,4-dihydro-2H-pyrido[2,3-e][1,3]oxazin-6-yl)-2-(4-fluorophenyl)-N-methylbenzofuran-3-carboxamide]	8930	10400		
CNC(=O)c1c(-c2ccc(F)cc2)oc2cc(N(C)S(C)(=O)=O)c(-c3ccc4c(n3)C(=O)N(Cc3ccc(F)cc3)CC4)cc12 [Compound 36, 5-(7-(4-fluorobenzyl)-8-oxo-5,6,7,8-tetrahydro-1,7-naphthyridin-2-yl)-2-(4-fluorophenyl)-N-methyl-6-(N-methylmethylsulfonamido)benzofuran-3-carboxamide]	1.08	0.527		
CNC(=O)c1c(-c2ccc(F)cc2)oc2ccc(-c3ccc4c(n3)C(=O)N(Cc3ccc(F)cc3)CC4)cc12 [Compound 37, 5-(7-(4-fluorobenzyl)-8-oxo-5,6,7,8-tetrahydro-1,7-naphthyridin-2-yl)-2-(4-fluorophenyl)-N-methylbenzofuran-3-carboxamide]	77.3	11.4		
CNC(=O)c1c(-c2ccc(F)cc2)oc2cc(N(C)S(C)(=O)=O)c(-c3ccc4nnn([C@H](COC)c5ccc(F)cc5)c(=O)c4c3)cc12 [Compound 39, (S)-2-(4-fluorophenyl)-5-(3-(1-(4-fluorophenyl)-2-methoxyethyl)-4-oxo-3,4-dihydrobenzo[d][1,2,3]triazin-6-yl)-N-methyl-6-(N-methylmethylsulfonamido)benzofuran-3-carboxamide]	4.04	9.27		
CNC(=O)c1c(-c2ccc(F)cc2)oc2cc(N(C)S(C)(=O)=O)c(-c3ccc4nnn([C@H](CO)c5ccc(F)cc5)c(=O)c4c3)cc12 [Compound 40, 2-(4-fluorophenyl)-5-{3-[(1S)-1-(4-fluorophenyl)-2-hydroxyethyl]-4-oxo-3,4-dihydro-1,2,3-benzotriazin-6-yl}-N-methyl-6-[methyl(methylsulfonyl)amino]-1-benzofuran-3-carboxamide]	6.19	9.03		
CNC(=O)c1c(-c2ccc(F)cc2)oc2cc(N(C)S(C)(=O)=O)c(-c3ccc4nnn([C@@H](COC)c5ccc(F)cc5)c(=O)c4c3)cc12 [Compound 41, 2-(4-fluorophenyl)-5-{3-[(1R)-1-(4-fluorophenyl)-2-methoxyethyl]-4-oxo-3,4-dihydro-1,2,3-benzotriazin-6-yl}-N-methyl-6-[methyl(methylsulfonyl)amino]-1-benzofuran-3-carboxamide]	18.1	16.2		
CNC(=O)c1c(-c2ccc(F)cc2)oc2cc(N(C)S(C)(=O)=O)c(-c3ccc4nnn(Cc5ccccc5)c(=O)c4c3)cc12 [Compound 42, 5-(3-benzyl-4-oxo-3,4-dihydro-1,2,3-benzotriazin-6-yl)-2-(4-fluorophenyl)-N-methyl-6-[methyl(methylsulfonyl)amino]-1-benzofuran-3-carboxamide]	9.48	9.55		
CNC(=O)c1c(-c2ccc(F)cc2)oc2cc(N(C)S(C)(=O)=O)c(-c3ccc4nnn(C(CO)c5ccccc5)c(=O)c4c3)cc12 (stereo not shown) [Compound 43, 2-(4-fluorophenyl)-5-[3-(2-hydroxy-1-phenylethyl)-4-oxo-3,4-dihydro-1,2,3-benzotriazin-6-yl]-N-methyl-6-[methyl(methylsulfonyl)amino]-1-benzofuran-3-carboxamide]	15.1	9.66		
CNC(=O)c1c(-c2ccc(F)cc2)oc2cc(N(C)S(C)(=O)=O)c(-c3ccc4nnn(Cc5ccc(F)cc5)c(=O)c4c3)cc12 [Compound 44, 5-[3-(4-fluorobenzyl)-4-oxo-3,4-dihydro-1,2,3-benzotriazin-6-yl]-2-(4-fluorophenyl)-N-methyl-6-[methyl(methylsulfonyl)amino]-1-benzofuran-3-carboxamide]	5.62	10.5		
CNC(=O)c1c(-c2ccc(F)cc2)oc2cc(N(C)S(C)(=O)=O)c(-c3ccc4nnn([C@@H](C)c5ccc(F)cc5)c(=O)c4c3)cc12 [Compound 45, 2-(4-fluorophenyl)-5-{3-[(1S)-1-(4-fluorophenyl)ethyl]-4-oxo-3,4-dihydro-1,2,3-benzotriazin-6-yl}-N-methyl-6-[methyl(methylsulfonyl)amino]-1-benzofuran-3-carboxamide]	35	17.5		
CNC(=O)c1c(-c2ccc(F)cc2)oc2cc(N(C)S(C)(=O)=O)c(-c3ccc4nnn([C@H](C)c5ccc(F)cc5)c(=O)c4c3)cc12 [Compound 46, 2-(4-fluorophenyl)-5-{3-[(1R)-1-(4-fluorophenyl)ethyl]-4-oxo-3,4-dihydro-1,2,3-benzotriazin-6-yl}-N-methyl-6-[methyl(methylsulfonyl)amino]-1-benzofuran-3-carboxamide]	7.65	10.2		
